Experimental data taken from patent US8741955B2, “D-serine transporter inhibitors as pharmaceutical compositions for the treatment of central nervous system disorders” (Allergan, Inc., priority 2011, dated 2014).

Assays:
[1] = test system: rat hippocampal astrocytes; assay: [3H]L-serine transport into astrocytes; assay type: cell-based
Method: (§1) Cell-based assays: the transport of [^3H]L- or D-serine was measured in primary cultures of rat hippocampal astrocytes or in human embryonic kidney (HEK) cells expressing ASCT transporter sub-types. For the astrocyte assays, cells were plated on either 24- or 96-well plates at a density of 50,000 cells per well. For the HEK assays, cells were plated on coated 96-well plates at a density of 80,000 cells/well. Assays were conducted in duplicate at room temperature in assay buffer consisting of: NaCl: 150 mM, KCl: 2 mM; MgCl2: 1 mM; CaCl2: 1 mM; HEPES: Tris buffer: 10 mM, pH7.4. To assess the sodium-dependence of transport, NaCl was replaced in the assay buffer by equimolar choline chloride. Following aspiration of growth medium and 2 washes with assay buffer, cells were incubated with [^3H]L- or D-serine at a final concentration of 1 μM for 5 min (astrocytes) or 1 min (HEK cells), after which the incubation medium was aspirated and the cells washed twice with ice-cold assay buffer. Cells containing radiolabel were solubilized in 100 μl of 1% Triton-X100 and an aliquot counted in a beta counter. IC50 values were determined over a range of at least 6 concentrations and derived from curve-fitting algorithms available in GraphPad Prism 4.

human ASCT1 = biological target: T1, human ASCT1 (Homo sapiens, UniProt P43007); assay: transport into HEK cells expressing ASCT1; assay type: cell-based
T1 construct: expressed in transfected cells; host or cells: HEK (human embryonic kidney) cells
T1 sequence (P43007 1-532): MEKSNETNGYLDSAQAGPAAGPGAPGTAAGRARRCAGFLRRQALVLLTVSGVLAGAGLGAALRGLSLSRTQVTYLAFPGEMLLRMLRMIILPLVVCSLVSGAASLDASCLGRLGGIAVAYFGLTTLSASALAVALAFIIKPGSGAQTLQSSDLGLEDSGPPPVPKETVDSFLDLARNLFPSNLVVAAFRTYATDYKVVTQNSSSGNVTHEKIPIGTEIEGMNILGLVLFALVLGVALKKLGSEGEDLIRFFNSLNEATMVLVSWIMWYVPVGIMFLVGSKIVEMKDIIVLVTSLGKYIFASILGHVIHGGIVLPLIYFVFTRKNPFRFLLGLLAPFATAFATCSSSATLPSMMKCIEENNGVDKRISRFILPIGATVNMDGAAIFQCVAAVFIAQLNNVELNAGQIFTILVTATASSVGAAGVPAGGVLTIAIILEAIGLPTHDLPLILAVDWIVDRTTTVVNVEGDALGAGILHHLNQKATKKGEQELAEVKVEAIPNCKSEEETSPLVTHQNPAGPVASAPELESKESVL
Method: as §1

[2] = test system: rat hippocampal astrocytes; assay: [3H]D-serine transport into primary cultures of rat hippocampal astrocytes; assay type: cell-based; conditions: Astrocyte; inhibition of [3H]D-serine transport, rat hippocampal astrocytes; means of at least two determinations
schizophrenic patients = conditions: added on to traditional antipsychotic drugs; Labrie and Roder, 2010; cited from earlier work
[3] = test system: amphetamine-induced hyperlocomotion in mice; assay: amphetamine induced hyperactivity; assay type: in vivo; conditions: systemic administration, amphetamine 2 mg/kg s.c.
Method: C57B/6 male mice (n=5-10/group) were placed in an open field apparatus and their activity was measured for 30 minutes. At 30 minutes, they received a vehicle injection or injection of test compound followed by an injection of amphetamine (2 mg/kg, s.c.) at minute 45. Their activity levels were subsequently measured for another 1 hour post-injection. Total activity for each 5 minute bin (21 total bins) was added to establish the activity curve over the 105 minute testing.

[4] = test system: long-term potentiation (LTP) in the primary visual cortex; assay: long term potentiation in primary visual cortex slices; parameters: species or system rat
Method: Long Term Potentiation (LTP) in primary visual cortex has been used as a cellular model for visual cortex plasticity and has functional consequences on visual evoked responses. NMDA receptors play a critical role in visual cortex LTP induction.
Following decapitation of the rat, the brain was rapidly removed and immersed in ice-cold artificial cerebrospinal fluid (ACSF) containing 124 mM NaCl, 3 mM KCl, 1.25 mM KH2PO4, 3.4 mM CaCl2, 2.5 mM MgSO4, 26 mM NaHCO3, and 10 mM D-glucose. A block of visual cortex was created by removing the frontal ⅔ portion of the brain and the cerebellum. Coronal visual cortex slices of 375 μm were prepared from adult Sprague Dawley (SD) rats using a vibratome (VT 1000 S; Leica). The slices were maintained in an interface recording chamber perfused with preheated ACSF. Slices were continuously perfused with this solution at a rate of 1.00-1.50 ml/min while the surface of the slices was exposed to warm, humidified 95% O2/5% CO2 and maintained at 31±1° C. Visual cortex slices were allowed to recover for 1 hr before recording began. […] This was repeated 2 additional times with a 1 minute intertrain interval, and the level of LTP was recorded for at least 30 min. Changes in amplitude of the synaptic response were used to measure the extent of LTP because it was determined to be the more consistent parameter than the slope of the response. […]

Compound	inhibition of [3H]L-serine transport in astrocytes [1]	inhibition of [3H]L-serine transport in ASCT1-expressing HEK cells (human ASCT1)	transport of [3H]D-serine into ASCT1-expressing HEK cells (substrate) (human ASCT1; with and without extracellular sodium)	IC50 [2]	efficacy in clinical trials of schizophrenic patients (schizophrenic patients)	effect on amphetamine-induced hyperactivity/hyperlocomotion [3]	effect on LTP with D-AAO in the perfusion medium ([4]; 0.2 unit/ml DAAO)	effect on LTP evoked by theta burst stimulation in visual cortex slice ([4]; rat visual cortex slice)
N[C@H](CO)C(=O)O [D-serine]	completely inhibited	completely inhibited	transported into ASCT1-expressing HEK cells in a sodium-dependent manner	1580 µM	has shown efficacy			
N[C@H](C(=O)O)c1ccc(O)cc1 [L-4-hydroxyphenylglycine]						reduced amphetamine-induced hyperactivity in a dose-dependent manner	completely prevented	enhanced LTP in a concentration-dependent manner
